Bridge positions count the residues as written; N and C are the ends. Square brackets hold non-standard residues; d marks the D form. Peptide text beside a SMILES is read from it. Trp(7-Me) = Cc1cccc2c(C[C@H](N)C(=O)O)c[nH]c12; 2Nal = N[C@@H](Cc1ccc2ccccc2c1)C(=O)O; AEF = NCCOc1ccc(C[C@H](N)C(=O)O)cc1; αMeL = CC(C)C[C@](C)(N)C(=O)O; Pen = CC(C)(S)[C@H](N)C(=O)O; αMeK = C[C@](N)(CCCCN)C(=O)O; βAla = NCCC(=O)O
Tests used:
IL-23R = target: T1, IL-23R (Homo sapiens, UniProt Q5VWK5); test: DB cells IL23R pSTAT3 cell assay (pStat3 HTRF); format: cell-based; conditions: Table E3; DB cells, IL-23 0.5 nM, 30 minutes at 37° C.; read-out: pStat3 HTRF (IC50)
T1 sequence (Q5VWK5 24-629): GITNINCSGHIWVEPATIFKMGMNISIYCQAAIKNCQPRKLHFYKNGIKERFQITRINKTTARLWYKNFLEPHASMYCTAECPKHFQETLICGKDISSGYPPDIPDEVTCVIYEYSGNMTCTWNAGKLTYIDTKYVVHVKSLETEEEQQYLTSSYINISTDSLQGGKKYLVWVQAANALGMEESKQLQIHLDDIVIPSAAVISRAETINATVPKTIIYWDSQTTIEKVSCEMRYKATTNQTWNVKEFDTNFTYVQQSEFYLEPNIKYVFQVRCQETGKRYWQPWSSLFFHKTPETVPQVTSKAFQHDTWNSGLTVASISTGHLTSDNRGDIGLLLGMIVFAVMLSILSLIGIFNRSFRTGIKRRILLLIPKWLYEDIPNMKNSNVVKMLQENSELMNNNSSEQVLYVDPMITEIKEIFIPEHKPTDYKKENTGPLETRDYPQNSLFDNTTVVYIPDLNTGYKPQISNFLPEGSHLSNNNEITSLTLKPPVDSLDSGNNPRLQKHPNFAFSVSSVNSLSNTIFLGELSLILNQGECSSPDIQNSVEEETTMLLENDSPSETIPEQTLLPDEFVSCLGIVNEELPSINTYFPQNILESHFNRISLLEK
Summary of the method: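 HTRF readout of lysate pSTAT3 (Tyr705) after two-plate processing. Peptide dilution series co-incubated with IL-23 (0.5 nM final) on 5×10E5 IL-23R-expressing DB cells per well, 30 min, 37 °C.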

NK cells = test: NK cell based assay (IL-23/IL-18-induced IFNγ, Quantikine ELISA); conditions: human primary NK cells, IL-23 at EC50 to EC75 + IL-18 10 ng/mL, IFNγ after 20 to 24 hours
Description: killer (NK) cells, purified from human peripheral blood of healthy donors by negative selection (Miltenyi Biotech, Cat #130-092-657), were cultured in complete media (RPMI 1640 containing […], L-glutamine and penicillin-streptomycin) in the presence of IL-2 (RnD, Cat #202-IL-010/CF) at 25 ng/mL. After 7 days, cells were centrifuged, and resuspended in complete media at IE6 cells/mL. […] After 20 to 24 hours, IFNγ in the supernatant was quantified using Quantikine ELISA (RnD, Cat #DIF50).

in vitro [1] = conditions: human, 20% fecal homogenate (supernatant), anaerobic, pH 6.8
in vitro [2] = conditions: cynomolgus monkey, 20% fecal homogenate (supernatant), anaerobic, pH 6.8
in vitro [3] = conditions: both, SD, rat
Description: Peptides of interest (20 μM) were incubated with pre-warmed rat plasma (SD rat, mixed gender pooled, EDTA, filtered through 0.22 μm, BioreclamationIVT) at 37° C. […] Quenched samples were stored at 4° C. until the end of the experiment and centrifuged at 4,000 rpm for 10 minutes. The supernatant were diluted 1:1 with deionized water and analyzed using LC-MS. Percentage remaining at each time point was calculated based on the peak area ratio (analyte over internal standard) relative to the initial level at time zero. Half-lives were calculated by fitting to a first-order exponential decay equation using GraphPad.

SMILES | IC50 (IL-23R) | IC50 (NK cells) | half-life at 20 μM (in vitro [1]) | half-life at 20 μM (in vitro [2]) | half-life at 20 μM (in vitro [3]; plasma (EDTA)) | half-life at 20 μM (in vitro [3]; plasma (EDTA, pooled))
CC(=O)NCCCC[C@H](NC(=O)[C@](C)(CC(C)C)NC(=O)[C@H](Cc1ccc2ccccc2c1)NC(=O)[C@H](Cc1ccc(OCCN)cc1)NC(=O)[C@H]1NC(=O)[C@H](CCC(N)=O)NC(=O)[C@H](Cc2c[nH]c3c(C)cccc23)NC(=O)[C@H]([C@@H](C)O)NC(=O)[C@H](CC(N)=O)NC(=O)[C@@H](NC(C)=O)C(C)(C)SSC1(C)C)C(=O)N[C@@H](C)C(=O)NCCC(N)=O [compound 207] | 1 to 10 nM | < 10 nM | > 24 h | > 24 h | 2 h | 
CC(=O)NCCCC[C@@H]1NC(=O)[C@H](Cc2c[nH]c3c(C)cccc23)NC(=O)[C@H]([C@@H](C)O)NC(=O)[C@H](CC(N)=O)NC(=O)[C@@H](NC(C)=O)C(C)(C)SSC(C)(C)[C@@H](C(=O)N[C@@H](Cc2ccc(OCCN)cc2)C(=O)N[C@@H](Cc2ccc3ccccc3c2)C(=O)N[C@@](C)(CCCCN)C(=O)N[C@@H](CCCCNC(C)=O)C(=O)N[C@@H](CC(N)=O)C(=O)NCCC(N)=O)NC1=O [compound 242] | < 1 nM | < 10 nM | > 24 h | 8 h | > 24 h | 
CC(=O)NCCCC[C@H](NC(=O)[C@](C)(CC(C)C)NC(=O)[C@H](Cc1ccc2ccccc2c1)NC(=O)[C@H](Cc1ccc(OCCN)cc1)NC(=O)[C@H]1NC(=O)[C@H](CCC(N)=O)NC(=O)[C@H](Cc2c[nH]c3c(C)cccc23)NC(=O)[C@H]([C@@H](C)O)NC(=O)[C@H](CC(N)=O)NC(=O)[C@@H](NC(C)=O)C(C)(C)SSC1(C)C)C(=O)N[C@H](C(=O)NCCC(N)=O)[C@@H](C)O [compound 217] | 1 to 10 nM | 11 to 100 nM | > 24 h | > 24 h | 2 h | 
CC(=O)NCCCC[C@H](NC(=O)[C@](C)(CC(C)C)NC(=O)[C@H](Cc1ccc2ccccc2c1)NC(=O)[C@H](Cc1ccc(OCCN)cc1)NC(=O)[C@H]1NC(=O)[C@H](CCC(N)=O)NC(=O)[C@H](Cc2c[nH]c3c(C)cccc23)NC(=O)[C@H]([C@@H](C)O)NC(=O)[C@H](CC(N)=O)NC(=O)[C@@H](NC(C)=O)C(C)(C)SSC1(C)C)C(=O)NCCC(=O)NCCC(N)=O [compound 226] | 10 to 100 nM | < 10 nM | > 24 h | > 24 h | 8 h | 
CC(=O)NCCCC[C@@H]1NC(=O)[C@H](Cc2c[nH]c3c(C)cccc23)NC(=O)[C@H]([C@@H](C)O)NC(=O)[C@H](CC(N)=O)NC(=O)[C@@H](NC(C)=O)C(C)(C)SSC(C)(C)[C@@H](C(=O)N[C@@H](Cc2ccc(OCCN)cc2)C(=O)N[C@@H](Cc2ccc3ccccc3c2)C(=O)N[C@@](C)(CCCCN)C(=O)N[C@@H](CCCCNC(C)=O)C(=O)N[C@@H](CC(N)=O)C(=O)N[C@H](CCCCN)C(N)=O)NC1=O [SEQ ID No. 252, Ac-[Pen]-NT-[W(7-Me)]-[Lys(Ac)]-[Pen]-Phe[4-(2-aminoethoxy)]-[2-Nal]-[a-MeLys]-[Lys(Ac)]-N-[(D)Lys]-NH2] | < 1 nM | < 10 nM | > 24 h | > 24 h |  | > 24 h
CC(=O)NCCCC[C@H](NC(=O)[C@](C)(CCCCN)NC(=O)[C@H](Cc1ccc2ccccc2c1)NC(=O)[C@H](Cc1ccc(OCCN)cc1)NC(=O)[C@H]1NC(=O)[C@H](CCC(N)=O)NC(=O)[C@H](Cc2cn(C)c3ccccc23)NC(=O)[C@H]([C@@H](C)O)NC(=O)[C@H](CC(N)=O)NC(=O)[C@@H](NC(C)=O)C(C)(C)SSC1(C)C)C(=O)N[C@@H](CC(N)=O)C(=O)NCCC(N)=O [compound 232] | 1 to 10 nM | < 10 nM | > 24 h | 10 h | > 24 h | 
CC(=O)NCCCC[C@H](NC(=O)[C@](C)(CCCCN)NC(=O)[C@H](Cc1ccc2ccccc2c1)NC(=O)[C@H](Cc1ccc(OCCN)cc1)NC(=O)[C@H]1NC(=O)[C@](C)(CC(C)C)NC(=O)[C@H](Cc2c[nH]c3c(C)cccc23)NC(=O)[C@H]([C@@H](C)O)NC(=O)[C@H](CC(N)=O)NC(=O)[C@@H](NC(C)=O)C(C)(C)SSC1(C)C)C(=O)N[C@@H](CC(N)=O)C(=O)NCCC(N)=O [compound 235] (Ac-[Pen]NT[Trp(7-Me)][αMeL][Pen][AEF][2Nal][αMeK]K(Ac)N[βAla]-NH2; disulfide 1-6) | 1 to 10 nM | 11 to 100 nM | > 24 h | > 24 h | 5 h | 
CC(=O)NCCCC[C@H](NC(=O)[C@](C)(CC(C)C)NC(=O)[C@H](Cc1ccc2ccccc2c1)NC(=O)[C@H](Cc1ccc(OCCN)cc1)NC(=O)[C@H]1NC(=O)[C@H](CCC(N)=O)NC(=O)[C@H](Cc2c[nH]c3c(C)cccc23)NC(=O)[C@H]([C@@H](C)O)NC(=O)[C@H](CC(N)=O)NC(=O)[C@@H](NC(C)=O)C(C)(C)SSC1(C)C)C(=O)N(C)[C@@H](C)C(=O)NCCC(N)=O [compound 223] | > 100 nM | < 10 nM | > 24 h | > 24 h | 9 h | 
CC(=O)NCCCC[C@@H]1NC(=O)[C@H](Cc2c[nH]c3c(C)cccc23)NC(=O)[C@H]([C@@H](C)O)NC(=O)[C@H](CC(N)=O)NC(=O)[C@@H](NC(C)=O)C(C)(C)SSC(C)(C)[C@@H](C(=O)N[C@@H](Cc2ccc(OCCN)cc2)C(=O)N[C@@H](Cc2ccc3ccccc3c2)C(=O)N[C@@](C)(CCCCN)C(=O)N[C@@H](CCCCNC(C)=O)C(=O)N[C@@H](Cc2c[nH]cn2)C(=O)NCCC(N)=O)NC1=O [compound 272] | 1 to 10 nM | < 10 nM | > 24 h | > 24 h | > 24 h | 
CC(=O)N[C@@H]1C(=O)N[C@@H](CC(N)=O)C(=O)N[C@@H]([C@@H](C)O)C(=O)N[C@@H](Cc2c[nH]c3c(C)cccc23)C(=O)N[C@@H](CCC(N)=O)C(=O)N[C@H](C(=O)N[C@@H](Cc2ccc(OCCN)cc2)C(=O)N[C@@H](Cc2ccc3ccccc3c2)C(=O)N[C@@](C)(CCCCN)C(=O)NC(C)(C)C(=O)N[C@@H](CC(N)=O)C(=O)NCCC(N)=O)C(C)(C)SSC1(C)C [compound 236] | 1 to 10 nM | < 10 nM | > 24 h | > 24 h | > 19.8 h | 
CC[C@H](C)[C@H](NC(=O)[C@H](CCCCNC(C)=O)NC(=O)[C@](C)(CC(C)C)NC(=O)[C@H](Cc1ccc2ccccc2c1)NC(=O)[C@H](Cc1ccc(OCCN)cc1)NC(=O)[C@H]1NC(=O)[C@H](CCC(N)=O)NC(=O)[C@H](Cc2c[nH]c3c(C)cccc23)NC(=O)[C@H]([C@@H](C)O)NC(=O)[C@H](CC(N)=O)NC(=O)[C@@H](NC(C)=O)C(C)(C)SSC1(C)C)C(=O)NCCC(N)=O [compound 216] | 10 to 100 nM | 101 to 500 nM | > 24 h | > 24 h | 13 h | 
CC(=O)NCCCC[C@H](NC(=O)[C@](C)(CC(C)C)NC(=O)[C@H](Cc1ccc2ccccc2c1)NC(=O)[C@H](Cc1ccc(OCCN)cc1)NC(=O)[C@H]1NC(=O)[C@H](CCC(N)=O)NC(=O)[C@H](Cc2c[nH]c3c(C)cccc23)NC(=O)[C@H]([C@@H](C)O)NC(=O)[C@H](CC(N)=O)NC(=O)[C@@H](NC(C)=O)C(C)(C)SSC1(C)C)C(=O)N[C@@](C)(CC(C)C)C(=O)NCCC(N)=O [compound 225] | 10 to 100 nM | 101 to 500 nM | > 24 h | > 24 h |  | 
CC(=O)N[C@@H]1C(=O)N[C@@H](CC(N)=O)C(=O)N[C@@H]([C@@H](C)O)C(=O)N[C@@H](Cc2c[nH]c3c(C)cccc23)C(=O)N[C@@H](CCC(N)=O)C(=O)N[C@H](C(=O)N[C@@H](Cc2ccc(OCCN)cc2)C(=O)N[C@@H](Cc2ccc3ccccc3c2)C(=O)N[C@@](C)(CCCCN)C(=O)N[C@@H](CCC(=O)O)C(=O)N[C@@H](CC(N)=O)C(=O)NCCC(N)=O)C(C)(C)SSC1(C)C [compound 282] | 1 to 10 nM | < 10 nM | > 24 h | 22 h | > 24 h | 
